# Experimental data: ChEMBL document CHEMBL3885881, “DrugMatrix”
# Species: Rattus norvegicus
# Experiment: DrugMatrix - Regimen: Daily Repeat
# Type: toxicity, organism-based, Sprague-Dawley
# Parameters: regimen Daily Repeat, gender Male, age 6-8 weeks
# Conditions: in vivo, po, route oral GAVAGE, vehicle .5 % CMC; for ABSOLUTE BASOPHIL / ABSOLUTE EOSINOPHIL / ABSOLUTE LYMPHOCYTE / ABSOLUTE MONOCYTE / ABSOLUTE SEGMENTED NEUTROPHIL / BASOPHIL / EOSINOPHIL / ERYTHROCYTE COUNT / HEMATOCRIT / HEMOGLOBIN / LEUKOCYTE COUNT / LYMPHOCYTE / MEAN CORPUSCULAR HEMOGLOBIN / MEAN CORPUSCULAR HEMOGLOBIN CONCENTRATION / MEAN CORPUSCULAR VOLUME / MONOCYTE / NEUTROPHIL / NUCLEATED RED BLOOD CELLS / PLATELET COUNT: tissue Blood; for ALANINE AMINOTRANSFERASE / ALBUMIN / ALKALINE PHOSPHATASE / ASPARTATE AMINOTRANSFERASE / BLOOD UREA NITROGEN / CARBON DIOXIDE / CHLORIDE / CHOLESTEROL / CREATINE PHOSPHOKINASE / CREATININE / GLUCOSE / LACTATE DEHYDROGENASE / LIPASE / PHOSPHORUS / POTASSIUM / SODIUM / TOTAL BILIRUBIN / TOTAL PROTEIN / URIC ACID: tissue Plasma
# [1] = 200 mg/kg, 120 h, dose level Low, time 5 day
# [2] = 2500 mg/kg, 72 h, dose level High, time 3 day
# [3] = 2500 mg/kg, 120 h, dose level High, time 5 day
smiles,measurement,setting,value
Cc1cnc(C(=O)NCCc2ccc(S(=O)(=O)NC(=O)NC3CCCCC3)cc2)cn1 [GLIPIZIDE],ABSOLUTE BASOPHIL,[1],0 CELLS/uL
same,ABSOLUTE EOSINOPHIL,[1],50.67 CELLS/uL
same,ABSOLUTE LYMPHOCYTE,[1],13488 CELLS/uL
same,ABSOLUTE MONOCYTE,[1],195 CELLS/uL
same,ABSOLUTE SEGMENTED NEUTROPHIL,[1],633 CELLS/uL
same,BASOPHIL,[1],0%
same,EOSINOPHIL,[1],0.33%
same,ERYTHROCYTE COUNT,[1],5.57 x10E6/uL
same,HEMATOCRIT,[1],34.23%
same,HEMOGLOBIN,[1],13.7 G/DL
same,LEUKOCYTE COUNT,[1],14.37 x10E3/uL
same,LYMPHOCYTE,[1],94%
same,MEAN CORPUSCULAR HEMOGLOBIN,[1],24.63 pg
same,MEAN CORPUSCULAR HEMOGLOBIN CONCENTRATION,[1],40 G/DL
same,MEAN CORPUSCULAR VOLUME,[1],61.53 fL
same,MONOCYTE,[1],1.33%
same,NEUTROPHIL,[1],4.33%
same,NUCLEATED RED BLOOD CELLS,[1],0 /100WBC
same,PLATELET COUNT,[1],1282.33 x10E3/uL
same,ALANINE AMINOTRANSFERASE,[1],62.33 u/L
same,ALBUMIN,[1],4.3 G/DL
same,ALKALINE PHOSPHATASE,[1],343.67 u/L
same,ASPARTATE AMINOTRANSFERASE,[1],82.67 u/L
same,BLOOD UREA NITROGEN,[1],14 mg/dL
same,CARBON DIOXIDE,[1],32.33 mmol/L
same,CHLORIDE,[1],103 MEQ/L
same,CHOLESTEROL,[1],74.67 mg/dL
same,CREATINE PHOSPHOKINASE,[1],208.33 u/L
same,CREATININE,[1],0.13 mg/dL
same,GLUCOSE,[1],118.67 mg/dL
same,LACTATE DEHYDROGENASE,[1],116.33 u/L
same,LIPASE,[1],10.67 u/L
same,PHOSPHORUS,[1],10.77 mg/dL
same,POTASSIUM,[1],6.11 MEQ/L
same,SODIUM,[1],144.93 MEQ/L
same,TOTAL BILIRUBIN,[1],0.2 mg/dL
same,TOTAL PROTEIN,[1],6.03 G/DL
same,URIC ACID,[1],0.9 mg/dL
same,ABSOLUTE BASOPHIL,[2],0 CELLS/uL
same,ABSOLUTE EOSINOPHIL,[2],83.33 CELLS/uL
same,ABSOLUTE LYMPHOCYTE,[2],11306.67 CELLS/uL
same,ABSOLUTE MONOCYTE,[2],81.67 CELLS/uL
same,ABSOLUTE SEGMENTED NEUTROPHIL,[2],861.67 CELLS/uL
same,BASOPHIL,[2],0%
same,EOSINOPHIL,[2],0.67%
same,ERYTHROCYTE COUNT,[2],5.69 x10E6/uL
same,HEMATOCRIT,[2],36.9%
same,HEMOGLOBIN,[2],14.23 G/DL
same,LEUKOCYTE COUNT,[2],12.33 x10E3/uL
same,LYMPHOCYTE,[2],91.67%
same,MEAN CORPUSCULAR HEMOGLOBIN,[2],25.07 pg
same,MEAN CORPUSCULAR HEMOGLOBIN CONCENTRATION,[2],38.57 G/DL
same,MEAN CORPUSCULAR VOLUME,[2],64.9 fL
same,MONOCYTE,[2],0.67%
same,NEUTROPHIL,[2],7%
same,NUCLEATED RED BLOOD CELLS,[2],0 /100WBC
same,PLATELET COUNT,[2],1346.67 x10E3/uL
same,ALANINE AMINOTRANSFERASE,[2],54 u/L
same,ALBUMIN,[2],4.17 G/DL
same,ALKALINE PHOSPHATASE,[2],318.33 u/L
same,ASPARTATE AMINOTRANSFERASE,[2],75.33 u/L
same,BLOOD UREA NITROGEN,[2],16 mg/dL
same,CARBON DIOXIDE,[2],31 mmol/L
same,CHLORIDE,[2],102.33 MEQ/L
same,CHOLESTEROL,[2],72.33 mg/dL
same,CREATINE PHOSPHOKINASE,[2],179.33 u/L
same,CREATININE,[2],0.15 mg/dL
same,GLUCOSE,[2],148.67 mg/dL
same,LACTATE DEHYDROGENASE,[2],104.33 u/L
same,LIPASE,[2],10 u/L
same,PHOSPHORUS,[2],11.9 mg/dL
same,POTASSIUM,[2],6.37 MEQ/L
same,SODIUM,[2],143.83 MEQ/L
same,TOTAL BILIRUBIN,[2],0.17 mg/dL
same,TOTAL PROTEIN,[2],5.63 G/DL
same,URIC ACID,[2],1.7 mg/dL
same,ABSOLUTE BASOPHIL,[3],0 CELLS/uL
same,ABSOLUTE EOSINOPHIL,[3],102.33 CELLS/uL
same,ABSOLUTE LYMPHOCYTE,[3],11867.33 CELLS/uL
same,ABSOLUTE MONOCYTE,[3],0 CELLS/uL
same,ABSOLUTE SEGMENTED NEUTROPHIL,[3],1397 CELLS/uL
same,BASOPHIL,[3],0%
same,EOSINOPHIL,[3],0.67%
same,ERYTHROCYTE COUNT,[3],5.55 x10E6/uL
same,HEMATOCRIT,[3],34.63%
same,HEMOGLOBIN,[3],14.1 G/DL
same,LEUKOCYTE COUNT,[3],13.37 x10E3/uL
same,LYMPHOCYTE,[3],88%
same,MEAN CORPUSCULAR HEMOGLOBIN,[3],25.4 pg
same,MEAN CORPUSCULAR HEMOGLOBIN CONCENTRATION,[3],40.73 G/DL
same,MEAN CORPUSCULAR VOLUME,[3],62.37 fL
same,MONOCYTE,[3],0%
same,NEUTROPHIL,[3],11.33%
same,NUCLEATED RED BLOOD CELLS,[3],0 /100WBC
same,PLATELET COUNT,[3],1273.67 x10E3/uL
same,ALANINE AMINOTRANSFERASE,[3],58 u/L
same,ALBUMIN,[3],4.37 G/DL
same,ALKALINE PHOSPHATASE,[3],329 u/L
same,ASPARTATE AMINOTRANSFERASE,[3],83.33 u/L
same,BLOOD UREA NITROGEN,[3],15 mg/dL
same,CARBON DIOXIDE,[3],30.67 mmol/L
same,CHLORIDE,[3],100.67 MEQ/L
same,CHOLESTEROL,[3],71 mg/dL
same,CREATINE PHOSPHOKINASE,[3],224.33 u/L
same,CREATININE,[3],0.19 mg/dL
same,GLUCOSE,[3],140.33 mg/dL
same,LACTATE DEHYDROGENASE,[3],117 u/L
same,LIPASE,[3],7.67 u/L
same,PHOSPHORUS,[3],11.13 mg/dL
same,POTASSIUM,[3],5.21 MEQ/L
same,SODIUM,[3],146.2 MEQ/L
same,TOTAL BILIRUBIN,[3],0.2 mg/dL
same,TOTAL PROTEIN,[3],6.17 G/DL
same,URIC ACID,[3],0.8 mg/dL
